Measurements taken from ChEMBL document CHEMBL1909046, “DrugMatrix in vitro pharmacology data”.

Experiments:
[1] = target: Mitogen-activated protein kinase 1 (Homo sapiens, UniProt P28482); test: DRUGMATRIX: Protein Serine/Threonine Kinase, ERK2 enzyme inhibition (substrate: Myelin Basic Protein); design: species or system Escherichia coli; details: Not Active = under 50% inhibition at 10 µM
[2] = target: T1, 5-hydroxytryptamine receptor 2C (Homo sapiens, UniProt P28335); test: DRUGMATRIX: Serotonin (5-Hydroxytryptamine) 5-HT2C radioligand binding (ligand: [3H] Mesulergine); type: cell membranes, CHO-K1, Membrane; details: Not Active = under 50% inhibition at 10 µM; for Ki: read-out: Ki
T1 sequence (P28335 whole entry): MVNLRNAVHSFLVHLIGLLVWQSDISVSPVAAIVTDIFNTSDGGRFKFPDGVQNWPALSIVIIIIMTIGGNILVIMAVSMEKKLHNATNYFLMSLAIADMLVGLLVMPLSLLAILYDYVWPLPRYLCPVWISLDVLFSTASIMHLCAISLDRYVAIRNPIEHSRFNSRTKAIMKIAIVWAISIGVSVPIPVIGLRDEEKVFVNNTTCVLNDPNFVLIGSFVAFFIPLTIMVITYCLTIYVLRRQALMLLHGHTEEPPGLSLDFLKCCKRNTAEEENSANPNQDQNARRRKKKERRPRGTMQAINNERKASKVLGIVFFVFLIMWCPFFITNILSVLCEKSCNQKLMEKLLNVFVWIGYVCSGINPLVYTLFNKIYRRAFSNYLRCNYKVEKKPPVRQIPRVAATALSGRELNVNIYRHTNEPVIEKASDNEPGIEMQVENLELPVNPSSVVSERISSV

[3] = target: Melanocortin receptor 3 (Homo sapiens, UniProt P41968); type: cell membranes, HEK293, Membrane; also: in other assays of this panel Not Active means under 50% inhibition at 10 µM
Chain of Melanocortin receptor 3 (P41968 whole entry): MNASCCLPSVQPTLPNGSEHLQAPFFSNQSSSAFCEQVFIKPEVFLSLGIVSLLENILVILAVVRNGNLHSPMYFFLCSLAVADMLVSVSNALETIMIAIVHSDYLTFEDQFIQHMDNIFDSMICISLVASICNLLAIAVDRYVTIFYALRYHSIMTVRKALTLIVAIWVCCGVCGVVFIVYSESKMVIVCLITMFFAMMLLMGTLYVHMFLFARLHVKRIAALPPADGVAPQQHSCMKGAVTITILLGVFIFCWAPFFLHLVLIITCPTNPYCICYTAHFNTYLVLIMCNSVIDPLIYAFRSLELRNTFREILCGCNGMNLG

[4] = DRUGMATRIX: Leukotriene, BLT (LTB4) radioligand binding (ligand: [3H]LTB4); type: cell membranes, Membrane; details: u-937, Not Active = under 50% inhibition at 10 µM
[5] = DRUGMATRIX: Phosphodiesterase PDE3 enzyme inhibition (substrate: [3H]cAMP + cAMP); type: tissue-based, Homo sapiens; details: platelet; Not Active = under 50% inhibition at 10 µM
[6] = target: T2, C-X-C chemokine receptor type 1 (Homo sapiens, UniProt P25024); also: in other assays of this panel Not Active means under 50% inhibition at 10 µM
T2 sequence (P25024 whole entry): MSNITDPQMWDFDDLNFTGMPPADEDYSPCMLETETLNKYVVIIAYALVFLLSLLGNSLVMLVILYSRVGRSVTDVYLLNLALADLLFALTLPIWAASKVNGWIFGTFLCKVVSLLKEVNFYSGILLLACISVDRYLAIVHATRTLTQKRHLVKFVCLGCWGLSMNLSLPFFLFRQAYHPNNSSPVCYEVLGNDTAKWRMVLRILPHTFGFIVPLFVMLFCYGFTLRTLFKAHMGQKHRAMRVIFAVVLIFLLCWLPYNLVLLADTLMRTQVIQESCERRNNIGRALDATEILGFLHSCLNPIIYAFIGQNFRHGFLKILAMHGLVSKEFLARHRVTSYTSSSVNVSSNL

Chain of Mitogen-activated protein kinase 1 (P28482 whole entry): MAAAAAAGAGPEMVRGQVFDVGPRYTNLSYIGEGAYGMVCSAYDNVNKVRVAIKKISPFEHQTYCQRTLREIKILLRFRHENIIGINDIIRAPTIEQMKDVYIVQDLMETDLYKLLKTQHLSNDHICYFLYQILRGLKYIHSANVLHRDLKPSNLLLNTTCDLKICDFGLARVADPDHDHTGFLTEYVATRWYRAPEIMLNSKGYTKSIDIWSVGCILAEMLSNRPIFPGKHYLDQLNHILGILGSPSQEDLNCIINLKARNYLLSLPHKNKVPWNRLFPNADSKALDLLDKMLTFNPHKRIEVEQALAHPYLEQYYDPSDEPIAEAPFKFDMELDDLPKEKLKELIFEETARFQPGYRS

Structure (SMILES) | IC50 [1] | IC50 ([2]; cho-k1) | IC50 ([3]; hek293) | IC50 [4] | Ki [4] | IC50 [5] | Ki [5] | IC50 [6] | IC50 ([2]; read-out: IC50) | Ki [2] | IC50 ([1]; read-out: IC50) | IC50 ([3]; read-out: IC50) | Ki ([3]; read-out: Ki) | IC50 ([4]; read-out: IC50) | Ki ([4]; read-out: Ki)
CC(C)(C)NC(=O)[C@@H]1C[C@@H]2CCCC[C@@H]2CN1C[C@@H](O)[C@H](Cc1ccccc1)NC(=O)[C@H](CC(N)=O)NC(=O)c1ccc2ccccc2n1 | Not Active | Not Active | Not Active | Not Active | Not Active | Not Active | Not Active | Not Active |  |  |  |  |  |  | 
CC(=O)[C@@]1(O)CC[C@H]2[C@@H]3C[C@H](C)C4=CC(=O)CC[C@]4(C)[C@H]3CC[C@@]21C | Not Active | Not Active | Not Active | Not Active | Not Active | Not Active | Not Active | Not Active |  |  |  |  |  |  | 
N[C@@H](Cc1ccc(N(CCCl)CCCl)cc1)C(=O)O | Not Active | Not Active | Not Active | Not Active | Not Active | Not Active | Not Active | Not Active |  |  |  |  |  |  | 
CCCCc1oc2ccccc2c1C(=O)c1cc(I)c(OCCN(CC)CC)c(I)c1 [AMIODARONE] | Not Active |  |  |  |  |  |  | Not Active |  |  |  |  |  |  | 
OCCN(CCO)c1nc(N2CCCCC2)c2nc(N(CCO)CCO)nc(N3CCCCC3)c2n1 [DIPYRIDAMOLE] | Not Active | Not Active | Not Active | Not Active | Not Active | Not Active | Not Active | Not Active |  |  |  |  |  |  | 
Cc1oncc1C(=O)Nc1ccc(C(F)(F)F)cc1 [LEFLUNOMIDE] | Not Active | Not Active | Not Active | Not Active | Not Active | Not Active | Not Active | Not Active |  |  |  |  |  |  | 
c1ccc([C@H]2CN3CCSC3=N2)cc1 [LEVAMISOLE] | Not Active | Not Active | Not Active | Not Active | Not Active | Not Active | Not Active | Not Active |  |  |  |  |  |  | 
N[C@@H](Cc1ccc(O)c(O)c1)C(=O)O [LEVODOPA] | Not Active | Not Active | Not Active | Not Active | Not Active | Not Active | Not Active | Not Active |  |  |  |  |  |  | 
N[C@@H](Cc1cc(I)c(Oc2ccc(O)c(I)c2)c(I)c1)C(=O)O [LIOTHYRONINE] | Not Active | Not Active | Not Active |  |  |  |  | Not Active |  |  |  |  |  |  | 
O=NN(CCCl)C(=O)NC1CCCCC1 [LOMUSTINE] | Not Active | Not Active | Not Active | Not Active | Not Active | Not Active | Not Active | Not Active |  |  |  |  |  |  | 
CCOC(=O)N1CCC(=C2c3ccc(Cl)cc3CCc3cccnc32)CC1 [LORATADINE] | Not Active | Not Active | Not Active | Not Active | Not Active | Not Active | Not Active | Not Active |  |  |  |  |  |  | 
Cn1ccnc1S [METHIMAZOLE] | Not Active | Not Active | Not Active | Not Active | Not Active | Not Active | Not Active | Not Active |  |  |  |  |  |  | 
CC[C@@H](CO)NC(=O)[C@@H]1C=C2c3cccc4[nH]cc(c34)C[C@H]2N(C)C1 [METHYLERGONOVINE] | Not Active |  | Not Active | Not Active | Not Active | Not Active | Not Active | Not Active | 0.013 µM | 0.00656 µM |  |  |  |  | 
COc1nc(C)nc(Cl)c1NC1=NCCN1 [MOXONIDINE] | Not Active | Not Active | Not Active | Not Active | Not Active | Not Active | Not Active | Not Active |  |  |  |  |  |  | 
COc1c(C)c2c(c(O)c1C/C=C(\C)CCC(=O)O)C(=O)OC2 [MYCOPHENOLIC ACID] | Not Active | Not Active | Not Active | Not Active | Not Active | Not Active | Not Active | Not Active |  |  |  |  |  |  | 
O=c1ncn2nc(Sc3ccc(F)cc3F)ccc2c1-c1c(Cl)cccc1Cl [NEFLAMAPIMOD] | Not Active | Not Active | Not Active | Not Active | Not Active | Not Active | Not Active | Not Active |  |  |  |  |  |  | 
CN1CCN(CCCN2c3ccccc3Sc3ccc(Cl)cc32)CC1 [PROCHLORPERAZINE] | Not Active |  | Not Active |  |  |  |  | Not Active |  |  |  |  |  |  | 
CO[C@H]1/C=C/O[C@@]2(C)Oc3c(C)c(O)c4c(O)c(c(/C=N/N5CCN(C)CC5)c(O)c4c3C2=O)NC(=O)/C(C)=C\C=C\[C@H](C)[C@H](O)[C@@H](C)[C@@H](O)[C@@H](C)[C@H](OC(C)=O)[C@@H]1C [RIFAMPIN] | Not Active | Not Active | Not Active | Not Active | Not Active | Not Active | Not Active | Not Active |  |  |  |  |  |  | 
Nc1nc2ccc(OC(F)(F)F)cc2s1 [RILUZOLE] | Not Active | Not Active | Not Active | Not Active | Not Active | Not Active | Not Active | Not Active |  |  |  |  |  |  | 
Cc1nc2n(c(=O)c1CCN1CCC(c3noc4cc(F)ccc34)CC1)CCCC2 [RISPERIDONE] | Not Active |  | Not Active |  |  |  |  | Not Active |  |  |  |  |  |  | 
C=CCC1(C(C)CCC)C(=O)NC(=O)NC1=O (stereo unspecified) [SECOBARBITAL] | Not Active | Not Active | Not Active | Not Active | Not Active | Not Active | Not Active | Not Active |  |  |  |  |  |  | 
C[C@@H]1CN(c2c(F)c(N)c3c(=O)c(C(=O)O)cn(C4CC4)c3c2F)C[C@H](C)N1 [SPARFLOXACIN] | Not Active | Not Active | Not Active | Not Active | Not Active | Not Active | Not Active | Not Active |  |  |  |  |  |  | 
Cc1noc(NS(=O)(=O)c2ccc(N)cc2)c1C [SULFISOXAZOLE] | Not Active | Not Active | Not Active | Not Active | Not Active | Not Active | Not Active | Not Active |  |  |  |  |  |  | 
CSc1ccc(/C=C2/C(C)=C(CC(=O)O)c3cc(F)ccc32)cc1 [SULINDAC SULFIDE] |  | Not Active | Not Active | Not Active | Not Active | Not Active | Not Active | Not Active |  |  | 1.09 µM |  |  |  | 
Nc1c2c(nc3ccccc13)CCCC2 [TACRINE] | Not Active | Not Active | Not Active | Not Active | Not Active | Not Active | Not Active | Not Active |  |  |  |  |  |  | 
CC/C(=C(\c1ccccc1)c1ccc(OCCN(C)C)cc1)c1ccccc1 [TAMOXIFEN] | Not Active |  |  |  |  |  |  | Not Active | 0.46 µM | 0.241 µM |  | 19.9 µM | 17.3 µM |  | 
CC(C)N1CCN(c2ccc(OCC3COC(Cn4cncn4)(c4ccc(Cl)cc4Cl)O3)cc2)CC1 (stereo unspecified) [TERCONAZOLE] | Not Active |  | Not Active |  |  | Not Active | Not Active | Not Active | 6.96 µM | 3.65 µM |  |  |  | 24.9 µM | 6.32 µM
